The source of these data is US20230391730A1, “INHIBITORS OF THE BROMODOMAIN PHD FINGER TRANSCRIPTION FACTOR (BPTF) AS ANTI-CANCER AGENTS” (Regents of the University of Minnesota, priority 2020, published 2023).

For series [1] the following is noted: disclosed by the structural genomics consortium; cited from earlier work.
The target in series [2] is T1, PCAF (Homo sapiens, UniProt Q92831).
T1 construct: three class I bromodomains, BPTF, PCAF, CECR2 and one class II bromodomain, BRD4(1) were fluorine-labelled; made in house
T1 sequence (Q92831 723-827): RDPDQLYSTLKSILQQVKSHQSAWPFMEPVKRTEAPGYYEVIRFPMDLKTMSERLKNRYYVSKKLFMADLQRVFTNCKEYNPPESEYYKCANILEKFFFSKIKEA
The series can be described thus: PrOF NMR titration, 5FW-PCAF. Format: binding. Conditions: 5FW-labeled protein.
Description: (§3) Protein-Observed Fluorine (PrOF) NMR. […] 40-50 μM of protein in 50 mM TRIS, 100 mM NaCl, and pH 7.4 was diluted by adding 25 μL of D2O and 2 μL of 0.1% TFA for NMR locking and referencing purposes, respectively. […] Ligands were titrated and the change in chemical shift relative to the control sample was plotted as a function of ligand concentration to generate binding isotherms. The data was processed in Mestrenova and isotherms were fit using GraphPad Prism with the equation below. Δδobs is the change in chemical shift, [L] is the total ligand concentration, and [P] is the total protein concentration:
(§4) The tryptophan residue in the WPF shelf of three class I bromodomains, BPTF, PCAF, CECR2 and one class II bromodomain, BRD4(1) were fluorine-labelled (FIG. 4A) and the chemical shift perturbation on titrating in BZ1 was observed.

Series [3] has as its system 4T1 cells. The series can be described thus: Combination with doxorubicin in 4T1 cells (MTS assay). Format: cell-based, mouse. Conditions: for sensitization of 4T1 cells to doxorubicin: 50 nM doxorubicin. The protocol: (§1) Cell culture methods. 4T1 cells were grown to a confluency of 50-60% using media containing DMEM with 10% fetal bovine serum (FES), 2 mM glutamine and penicillin-streptomycin. 4T1 cells with snRNA-mediated BPTF knockdown (KD) were prepared as described previously. For NURF inhibitor toxicity study, 4000 cells/well were seeded in a 96-well plate and allowed to adhere overnight. The next day, 10 different dilutions of inhibitors were prepared starting with a highest concentration of 1.0 mM and further serially diluted 10 times to get the lowest concentration of 1.95 μM. Cells were treated with the inhibitors in complete media for 4 days. Thereafter, the MTS reagent was prepared using the CellTitre 96 aqueous MTS reagent (Promega, Cat #G1111) and phenazine methosulphate (Sigma, Cat #P9625). The MTS assay was performed as per manufacturer's protocol and the absorbance was recorded at a wavelength of 490 nm. Fraction cell survival was calculated using untreated control cells to indicate complete survival (1.0) and blank solutions as 0.0 survival. The data was derived from three independent experiments (N=3) and fraction survival was plotted as mean fraction survival±SEM using GraphPad Prism software. For checking the toxicity on wildtype and BPTF knockdown cells, three doses were selected for each inhibitor based on theft toxicity curves and treated for 4 days alone or in combination with 50 nM doxorubicin. Fraction survival was measured and calculated by MIS assay as mentioned above.

Series [4] is classed as physicochemical. The protocol:
UV-Vis Methods. Compounds were diluted in DMSO at a top concentration of 100 mM. 2-fold serial dilutions in DMSO where performed followed by 1000-fold dilution into phosphate saline buffer (PBS) to get a final top concentration of 100 μM in 0.1% DMSO for each compound. UV-Vis measurements at 254 nm were taken on a Biomate 3S Spectrophotometer.

The target in a further series is T2, GCN5L2 (Homo sapiens, UniProt Q92830).
T2 construct: off-target class I (PCAF, GCN5L2, CECR2,) and class IV (BRD7, BRD9) bromodomains and BRD4(1); purchased
T2 sequence (Q92830 728-832 limits assumed): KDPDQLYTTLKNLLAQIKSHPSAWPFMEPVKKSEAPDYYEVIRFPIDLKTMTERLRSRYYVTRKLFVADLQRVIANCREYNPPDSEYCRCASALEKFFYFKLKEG
The series can be described thus: BROMOscan, GCN5L2. Format: binding. Conditions: BROMOscan one-point measurement at 140 nM. The text has this: (§2) Based on the preliminary assessment of BPTF selectivity and affinity of BZ1 by PrOF NMR and AlphaScreen competition assays, the ligand was characterized using a commercial BROMOscan assay. […]. Given the low concentration of ligand and protein used, AlphaScreen can be used to estimate K values as was previously the case for characterizing BRD4-ligand interactions, however the assay for BPTF may slightly underestimate the affinity. […] […]. Recently reported pyridazinone-based inhibitors also bind to these proteins and BRD9 was reported as the closest off-target for TP-238. These studies supported good on target-BPTF inhibition, and identified several off-targets bromodomains for a more quantitative selectivity analysis.

For series [5], the target named is T3, CECR2 (Homo sapiens, UniProt Q9BXF3). The series can be described thus: BROMOscan, CECR2. Format: binding. More on the design: off-target class I (PCAF, GCN5L2, CECR2,) and class IV (BRD7, BRD9) bromodomains and BRD4(1); purchased. Conditions: BROMOscan one-point measurement at 140 nM.
Description: as §2
Target sequence in this assay (Q9BXF3 434-538 limits assumed): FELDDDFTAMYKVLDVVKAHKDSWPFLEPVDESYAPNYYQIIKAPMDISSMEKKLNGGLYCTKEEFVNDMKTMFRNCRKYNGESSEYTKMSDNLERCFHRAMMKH

Series [6] deals with T3, CECR2. The series can be described thus: PrOF NMR titration, 5FW-CECR2. Format: binding. Details: three class I bromodomains, BPTF, PCAF, CECR2 and one class II bromodomain, BRD4(1) were fluorine-labelled; made in house. The following applies: 5FW-labeled protein.
Target sequence in this assay (Q9BXF3 434-538): as the sequence (Q9BXF3 434-538 limits assumed) above
Description: as §3, §4
Series [7] has as its target T4, BRD4(1) (Homo sapiens, UniProt O60885). The series can be described thus: PrOF NMR titration, 5FW-BRD4(1). The series is classed as binding. Details: three class I bromodomains, BPTF, PCAF, CECR2 and one class II bromodomain, BRD4(1) were fluorine-labelled; made in house. Conditions: 5FW-labeled protein.
Description: as §3, §4
The target in series [8] is T3, CECR2. Conditions: disclosed by the structural genomics consortium; cited from earlier work.
Target sequence in this assay (Q9BXF3 whole entry): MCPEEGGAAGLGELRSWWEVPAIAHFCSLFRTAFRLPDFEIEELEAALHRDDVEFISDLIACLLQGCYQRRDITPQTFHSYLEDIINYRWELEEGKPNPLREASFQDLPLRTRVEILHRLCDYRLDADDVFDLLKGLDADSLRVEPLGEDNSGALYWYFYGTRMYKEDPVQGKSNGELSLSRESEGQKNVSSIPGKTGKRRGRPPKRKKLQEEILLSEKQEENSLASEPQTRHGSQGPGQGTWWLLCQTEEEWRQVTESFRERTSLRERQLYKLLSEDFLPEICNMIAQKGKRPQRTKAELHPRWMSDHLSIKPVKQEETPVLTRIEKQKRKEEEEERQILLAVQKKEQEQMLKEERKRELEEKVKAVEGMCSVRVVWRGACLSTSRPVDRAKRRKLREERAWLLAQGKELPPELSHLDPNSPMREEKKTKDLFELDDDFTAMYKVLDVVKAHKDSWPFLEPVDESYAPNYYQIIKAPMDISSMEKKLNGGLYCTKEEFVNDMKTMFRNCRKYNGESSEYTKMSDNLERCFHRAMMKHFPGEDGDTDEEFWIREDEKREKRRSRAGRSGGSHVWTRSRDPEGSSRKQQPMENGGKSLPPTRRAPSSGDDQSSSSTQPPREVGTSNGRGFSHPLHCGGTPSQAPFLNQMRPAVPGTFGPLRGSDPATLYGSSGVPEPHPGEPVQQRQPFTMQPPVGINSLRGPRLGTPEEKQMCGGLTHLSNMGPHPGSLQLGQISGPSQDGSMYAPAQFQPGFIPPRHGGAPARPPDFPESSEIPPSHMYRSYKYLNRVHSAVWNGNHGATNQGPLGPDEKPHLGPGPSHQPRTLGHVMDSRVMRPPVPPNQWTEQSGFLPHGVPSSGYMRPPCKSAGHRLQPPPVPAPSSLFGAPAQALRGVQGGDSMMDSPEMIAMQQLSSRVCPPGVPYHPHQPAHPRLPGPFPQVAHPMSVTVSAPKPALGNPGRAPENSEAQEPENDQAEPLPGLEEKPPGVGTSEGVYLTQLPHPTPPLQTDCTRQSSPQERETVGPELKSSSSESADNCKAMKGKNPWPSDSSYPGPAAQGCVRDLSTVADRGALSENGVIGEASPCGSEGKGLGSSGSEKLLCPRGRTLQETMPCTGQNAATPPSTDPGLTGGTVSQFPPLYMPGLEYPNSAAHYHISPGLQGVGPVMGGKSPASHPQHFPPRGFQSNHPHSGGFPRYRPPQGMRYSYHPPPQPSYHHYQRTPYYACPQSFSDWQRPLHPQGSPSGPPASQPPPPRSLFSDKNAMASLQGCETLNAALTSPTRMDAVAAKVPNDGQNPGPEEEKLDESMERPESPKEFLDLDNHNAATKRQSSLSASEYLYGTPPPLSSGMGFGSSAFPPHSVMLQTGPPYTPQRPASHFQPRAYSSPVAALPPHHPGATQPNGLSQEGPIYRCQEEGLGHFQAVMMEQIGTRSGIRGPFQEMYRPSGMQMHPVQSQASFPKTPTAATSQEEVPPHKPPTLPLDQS
The next series has as its system Sfn. The series can be described thus: RT-qPCR of BPTF regulated genes in Eph4 cells, Sfn. Format: cell-based, murine. Conditions: 5 μM, 24 h, relative to DMSO. The protocol: qPCR methods. Eph4 cells were treated for 24 h and harvested in trizol. RNA extraction was carried out via chloroform extractions. cDNA creation was completed via SuperScript III cDNA creation kit (Invitrogen, #12574026). All qpcrs are normalized to EPH4 DMSO and the house keeping gene beta actin. Bars represent 2 biological replicates and 3 technical replicates. All statistical analysis are student's t-test carried out on GraphPad. Reactions were carried out on the Quantstudio 6 platform using Sybr Green PCR Master Mix (Applied Biosystems, #4309155) Statistically significant differences for cell line treatment groups were considered with a one-way Anova p-value lower than 0.05 (p<0.05).
It's been previously shown that BPTF inhibition was associated with alteration to lineage commitment and stem cell maintenance. Loss of BPTF expression in a mixed population of Krt5-expressing mammary stem cells induced differentiation, a process that was accompanied by changes to chromatin accessibility and altered gene expression activation. The effects of the BPTF inhibitors described herein were investigated in mammary luminal cells.
A general note: Quantitative PCR measures a nucleic acid by following its amplification.

The subject of a further series is Eph4 cells. The following applies: 5 μM.
In series [9] the test system is 4T1 cells. The series can be described thus: Inhibitor toxicity in 4T1 cells (MTS assay). The series is classed as cell-based, mouse. The following applies: inhibitor alone. The protocol: as §1, with “For checking the toxicity on wildtype and BPTF knockdown cells, three doses were selected for each inhibitor based on theft toxicity curves and treated for 4 days alone or in combination with 50 nM doxorubicin.” left out
A general note: Tetrazolium assays rely on reduction of a dye to a coloured formazan, in cell work by metabolically active cells.

Series [10] concerns 4T1 cells with shRNA-mediated BPTF knockdown. The series can be described thus: Inhibitors with doxorubicin in BPTF knockdown 4T1 cells. Format: cell-based, mouse. The protocol:
as §1, with “For checking the toxicity on wildtype and BPTF knockdown cells, three doses were selected for each inhibitor based on theft toxicity curves and treated for 4 days alone or in combination with 50 nM doxorubicin.” left out

The target in the next series is T5, BPTF bromodomain (Homo sapiens, UniProt Q12830).
T5 construct: 30 nM for His9-tagged BPTF bromodomain and 50 nM for the biotinylated peptide were used; made in house
The series can be described thus: BPTF AlphaScreen competitive inhibition assay. Format: binding. A general note: In Alpha technology, singlet oxygen from a donor bead excites a nearby acceptor bead.

A further series concerns the target T6, BPTF (Homo sapiens, UniProt Q12830).
T6 construct: Kd values for BZ1 with BPTF and off-target class I (PCAF, GCN5L2, CECR2,) and class IV (BRD7, BRD9) bromodomains; purchased
The series can be described thus: BROMOscan, BPTF. The series is classed as binding.

Series [11] deals with T7, PCAF (Homo sapiens, UniProt Q92831).
T7 construct: off-target class I (PCAF, GCN5L2, CECR2,) and class IV (BRD7, BRD9) bromodomains and BRD4(1); purchased
T7 sequence (Q92831 723-827 limits assumed): T1 sequence (Q92831 723-827)
The series can be described thus: BROMOscan, PCAF. The series is classed as binding.
Description: Given that these measurements were only estimates of affinity, a full titration was carried out for five additional bromodomains (FIG. 5B).

For series [12], the target named is T4, BRD4(1). The series can be described thus: BRD4(1) AlphaScreen competitive inhibition assay. The series is classed as binding. More on the design: Unlabeled His9-tagged BPTF and BRD4 D1 were expressed and purified as described previously; made in house.
Description: (§5) General Procedure for AlphaScreen Assay.^36 Unlabeled His9-tagged BPTF and BRD4 D1 were expressed and purified as described previously.^36 The AlphaScreen assay procedures for BPTF and BRD4 bromodomains were adapted from the manufacturers protocol (PerkinElmer, USA). […] The biotinylated Histone H4 KAc5,8,12,16 peptide was purchased from EpiCypher, with the sequence:
(§6) All reagents were diluted in the assay buffer (50 mM HEPES-Na^+ (ChemImpex), 100 mM NaCl (SigmaAldrich), 0.05% CHAPS (RPI), 0.1% BSA (SigmaAldrich), pH 7.4). The final assay concentrations (after the addition of all assay components) of 30 nM for His9-tagged BPTF bromodomain and 50 nM for the biotinylated peptide were used. […] The plate was sealed and kept at room temperature for 30 min, followed by the addition of 5 μL of the biotinylated peptide. 5 μL of nickel chelate acceptor beads was added to each well under low light conditions (<100 lux), to a final concentration of 20 μg/mL, and the plate was incubated at room temperature in the dark for 30 minutes. This was followed by the addition of 5 μL (20 μg/mL final concentration) of streptavidin donor beads in low light conditions. After incubation for 30 min in the dark, the plate was read in AlphaScreen mode using a PerkinElmer EnSpire plate reader. […] IC50 values were calculated in GraphPad Prism 5 using sigmoidal 4-parameter logistic (4PL) curve
Series [13] addresses PCAF (Homo sapiens, UniProt Q92831). The following applies: previously reported; cited from earlier work.
Target sequence in this assay (Q92831 whole entry): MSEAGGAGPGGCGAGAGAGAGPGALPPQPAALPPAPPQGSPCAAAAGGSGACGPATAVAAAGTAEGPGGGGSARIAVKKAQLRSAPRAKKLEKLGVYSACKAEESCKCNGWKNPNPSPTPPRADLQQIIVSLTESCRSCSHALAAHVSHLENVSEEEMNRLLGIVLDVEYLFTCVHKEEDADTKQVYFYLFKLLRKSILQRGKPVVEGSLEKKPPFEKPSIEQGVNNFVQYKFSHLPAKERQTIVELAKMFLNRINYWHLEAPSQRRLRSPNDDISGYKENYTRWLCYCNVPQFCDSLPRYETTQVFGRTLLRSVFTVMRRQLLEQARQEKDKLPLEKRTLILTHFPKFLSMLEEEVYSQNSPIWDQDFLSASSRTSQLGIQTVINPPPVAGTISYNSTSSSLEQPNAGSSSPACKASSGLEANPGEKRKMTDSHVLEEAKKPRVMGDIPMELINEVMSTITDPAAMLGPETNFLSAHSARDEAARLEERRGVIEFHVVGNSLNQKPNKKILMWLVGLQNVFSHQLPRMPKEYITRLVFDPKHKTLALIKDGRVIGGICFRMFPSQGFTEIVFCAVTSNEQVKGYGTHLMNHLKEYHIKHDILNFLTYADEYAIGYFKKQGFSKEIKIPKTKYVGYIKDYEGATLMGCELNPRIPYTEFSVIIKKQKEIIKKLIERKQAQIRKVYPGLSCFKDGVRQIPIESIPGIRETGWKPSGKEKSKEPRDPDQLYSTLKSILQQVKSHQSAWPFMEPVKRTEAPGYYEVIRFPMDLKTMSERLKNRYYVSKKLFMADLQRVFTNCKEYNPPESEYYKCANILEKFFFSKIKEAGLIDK
A further series concerns the target T8, BRD9 (Homo sapiens, UniProt Q9H8M2).
T8 sequence (Q9H8M2 1-597): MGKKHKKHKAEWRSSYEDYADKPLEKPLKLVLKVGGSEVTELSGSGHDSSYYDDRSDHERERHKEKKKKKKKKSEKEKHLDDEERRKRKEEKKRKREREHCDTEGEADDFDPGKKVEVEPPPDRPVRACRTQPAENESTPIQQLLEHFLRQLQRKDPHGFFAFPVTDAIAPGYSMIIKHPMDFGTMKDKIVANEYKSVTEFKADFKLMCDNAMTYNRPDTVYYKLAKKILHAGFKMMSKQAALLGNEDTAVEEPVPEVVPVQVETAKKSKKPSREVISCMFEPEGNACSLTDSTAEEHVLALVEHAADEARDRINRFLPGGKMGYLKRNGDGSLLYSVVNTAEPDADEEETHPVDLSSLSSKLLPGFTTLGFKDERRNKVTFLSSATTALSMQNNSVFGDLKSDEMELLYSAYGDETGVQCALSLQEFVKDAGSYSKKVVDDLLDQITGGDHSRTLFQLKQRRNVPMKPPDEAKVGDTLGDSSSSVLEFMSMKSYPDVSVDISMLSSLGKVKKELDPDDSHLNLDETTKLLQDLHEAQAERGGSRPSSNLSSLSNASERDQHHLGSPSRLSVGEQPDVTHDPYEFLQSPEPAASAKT
The following applies: previously reported; cited from earlier work.

As usually defined, the solubility is how much of the substance goes into solution per volume. A high value points to much dissolved substance. Usually IC50 stands for the midpoint of a concentration-inhibition curve. The low end stands for higher potency, the high end for lower potency. In general, Kd refers to the equilibrium constant for the complex coming apart.

SMILES strings stand for the structures. Entries after “also recorded” stand apart in the source; their conditions may differ. Where only a bound is given, the exact number is not on record here.

Description for BPTF bromodomain: as §5, §6

As for `Cc1c(Nc2ccc(S(=O)(=O)N3CCN(C)CC3)cc2F)nc2ccc(-c3cnn(C4CC4)c3)cn2c1=O` [NVS-BPTF-1], the “solubility and ADME properties” value in series [1] is “poor solubility and ADME properties”.
For `Cn1ncc(Nc2ccc(CCN)cc2)c(Cl)c1=O` [Compound 18, 5-((4-(2-aminoethyl)phenyl)amino)-4-chloro-2-methylpyridazin-3(2H)-one], the “chemical exchange regime with PCAF” value on PCAF [2] is “slow exchange regime stoichiometric titration”. The “sensitization of 4T1 cells to doxorubicin” value (from here on “sensitization of 4T1 cells”) in the series with 4T1 cells [3] (listed as BZ1) was “synergize with chemotherapy drug doxorubicin; also recorded: sensitized 4T1 cells to doxorubicin”. For the same molecule, the solubility in series [4] is ≥ 100 µM. For the same molecule, the “inhibition of GCN5L2” value at GCN5L2 is “lower levels of inhibition”. Further, the “inhibition of CECR2” value at CECR2 [5] was “lower levels of inhibition”. Besides, the “chemical exchange regime with CECR2” value at CECR2 [6] was “intermediate chemical exchange”. Further, the “chemical exchange regime with BRD4(1)” value at BRD4(1) [7] was “fast-intermediate exchange”.
`CN(C)CCCOc1ccc(-c2cc(NCCCn3cccn3)nc(S(C)(=O)=O)n2)cc1` [TP-238]: at CECR2 [8], the “higher affinity for CECR2 over BPTF” value is reported as 12 fold.
For `CN(C)CCc1ccc(Nc2cnn(C)c(=O)c2Cl)cc1` [Compound 19, 4-chloro-5-((4-(2-(dimethylamino)ethyl)phenyl)amino)-2-methylpyridazin-3(2H)-one], the “sensitization of 4T1 cells” value in the series with 4T1 cells [3] was “synergize with chemotherapy drug doxorubicin; also recorded: sensitized 4T1 cells to doxorubicin”. In addition, in the series with 4T1 cells [3] (dose dependence experiment with doxorubicin), the “less effective than BZ1” value is listed as 2-4 fold. In addition, in the series on Sfn, the “Sfn mRNA level” value is given as “statistically significant increase”. Moreover, the solubility in [4] was ≥ 100 µM. The caspase activation entry in the series with Eph4 cells is “lack of caspase activation”.
On to `COC(=O)c1cccc(NC(=O)N[C@H]2CCN(c3ccnc(Nc4ccc(F)cc4)n3)C2)c1` [AU1, reference compound], for which the “concentration at which toxicity starts” value with 4T1 cells [9] was “above 16 μM”. For the same molecule, the “sensitization of 4T1 cells” value in the series with 4T1 cells [3] is on record as “synergize with chemotherapy drug doxorubicin”. The “further toxicity in BPTF knockdown cells” value in [10] is on record as “Additional toxicity was observed”. Besides, in the series on Sfn, the “Sfn mRNA level” value is on record as “upregulated Sfn but did not reach a high enough level of statistical significance”.
With `C#CCn1ncc(Nc2ccc(CN)cc2)c(Cl)c1=O` [Compound 24, 5-((4-(aminomethyl)phenyl)amino)-4-chloro-2-(prop-2-yn-1-yl)pyridazin-3(2H)-one], the IC50 on BPTF bromodomain was 380 nM; on BRD4(1) [12], 71000 nM. In addition, the dissociation constant Kd came out at 200 nM at BPTF and 230 nM at PCAF [11].
As to `Cn1ncc(Nc2ccccc2)c(Cl)c1=O` [Compound 6, 4-chloro-2-methyl-5-(phenylamino)pyridazin-3(2H)-one], the “improvement in affinity compared to previous aliphatic amine analogues” value on BPTF bromodomain turned out to be 10 fold. Also, the “affinity for PCAF” value on PCAF [13] is 10 µM. Moreover, the “affinity for BRD9” value on BRD9 was 2.5 µM.
For `CN(C)CCc1ccc(Nc2c(Cl)cnn(C)c2=O)cc1` [Compound 20, 5-chloro-4-((4-(2-(dimethylamino)ethyl)phenyl)amino)-2-methylpyridazin-3(2H)-one], at BPTF bromodomain, the IC50 was determined as 10000 nM and the “weaker affinity than 18” value is reported as 140 fold. In addition, the “L.E. (ligand efficiency)” value at BPTF bromodomain (from BPTF AlphaScreen) is 0.32. For the same molecule, in the series on 4T1 cells [3], the “sensitization of 4T1 cells” value is “did not”. Also, in the series with Sfn, the “Sfn mRNA level” value is on record as “not significantly affected”. Also, the solubility in series [4] is ≥ 100 µM.
